Measured values from US10881709B2, “Immune system modulators and compositions” (Canimguide Therapeutics AB, priority 2015, dated 2021).
Ends that are not written are not given here.

Columns and labels:
[1] = molecular target: P3028 (PGE73=His-tag-P3028) (Homo sapiens, UniProt P02768); experiment: Blocking of P3028 binding by peptide inhibitors in solution (PEPSCAN-based ELISA); conditions: peptide 0.5 mg/mL
Description: Three candidate peptide inhibitors of P3028 sequences/structures were identified and their blocking capacity in solution was tested. Potential peptide inhibitors of P3028 were synthesized on a chip. The linear and/or CLIPS peptides were synthesized based on the amino acid sequence of the target protein using standard Fmoc-chemistry and deprotected using trifluoric acid with scavengers. The constrained peptides were synthesized on chemical scaffolds in order to reconstruct conformational epitopes, using Chemically Linked Peptides on Scaffolds (CLIPS) technology (Timmerman et al. (2007)). For example, the single looped peptides were synthesized containing a dicysteine, which was cyclized by treating with alpha, alpha′-dibromoxylene and the size of the loop is varied by introducing cysteine residues at variable spacing. […] After one hour, the color development was measured. The color development was quantified with a charge coupled device (CCD)—camera and an image processing system.
The raw data (Raw Data: Optical density, Arbitrary OD units) are optical values obtained by a CCD-camera. The values mostly range from 0 to 3000, a log scale similar to 1 to 3 of a standard 96-well plate ELISA-reader. […] Sometimes a well contains an air-bubble resulting in a false-positive value, the cards are manually inspected and any values caused by an air-bubble are scored as 0. […]

[2] = system: PBMCs; experiment: Mitochondrial metabolism of PBMCs, conversion of MTS; type: cell-based, human; conditions: PBMCs from cancer patients, 5-40 μg/ml
Description: PBMCs from eight healthy control samples and nine cancer patients with various diagnoses (including renal cell cancer, malignant melanoma, rectal cancer, small cell lung cancer, non-small cell lung cancer (adenocarcinoma), squamous cell carcinoma, bladder cancer, osteosarcoma, pancreatic cancer, or bronchial cancer) were cultured in a modified version of the ex vivo model of Example 2 for seven days in the presence of various quantities of P28R (SEQ ID NO: 2), and control samples were untreated with P28R. […] Similar results were obtained when the PBMCs were cultured for only three days.
PBMCs from cancer patients with various diagnoses were cultured in a modified version of the ex vivo model of Example 2 with various concentrations of P28R or P27 (N=9 for P28R: N=8 for P27). The concentrations were either untreated control samples, 5 μg/mL (“SCF28-R5” and “SCF275”), 10 μg/ml (“SCF28-R10” and “SCF2710”), 20 μg/ml (“SCF28-R20” and “SCF2720”), or 40 μg/ml (“SCF28-R40” and “SCF2740”).

[3] = system: PBMCs; experiment: IL-2 induced proliferation of PBMCs, BrdU incorporation; type: cell-based, human; conditions: PBMCs with low initial proliferation / low response to IL-2, 7 days
Description: PBMCs were cultured for 7 days with IL-2 and the proliferative rate was determined as incorporation of BrdU. Each bar represents mean value of triplets. Similar to the studies on the efficacy of antibodies (see FIG. 22) directed against P3028 to reverse cancer related immunosuppression determined as a poor proliferative response of PBMCs from cancer patients to IL-2, the efficacy of the low molecular weight inhibitor P28R on reversal of suppressed IL-2 induced proliferation was investigated. For each quantity of added P28R, IL-2 stimulated cells 240 are shown in the left, and unstimulated 242 are shown on the right. […]
The effect of P28R (SEQ ID NO: 2) on IL-2 induced proliferation was measured in a BrdU incorporation assay. […]
The response of high responders and low responders to various doses of P28R was compared. […] IL-2-induced proliferation was measured as BrdU incorporation, as in the above example, and the results are shown for high responders in FIG. 36A, and low responders in FIG. 36B.
PBMCs from low responder cancer patients of Example 30 were cultured as in Example 30, except that some samples were cultured with various concentrations P28R (aka “SCF28-R”), and others were cultured with various concentrations of P27 (aka “SCF27”). […] BrdU incorporation was measured as in Example 30. […]

[4] = molecular target: P3028 (SEQ ID NO: 185) (Homo sapiens, UniProt P02768); experiment: Positional scan: P3028 binding to solid phase P28R variants (ELISA)
Description: Positional scan data was used to study the influence of substitution of different types of amino acids in each position of P28R (SEQ ID NO: 2) on the binding of P3028 (SEQ ID NO: 185). Each amino acid in the peptide sequence of P28R (SEQ ID NO: 2) was exchanged with all of the naturally occurring amino acids, and immobilized on a solid phase chip. The binding of P3028 to these “mutated” P28 R peptides synthesized on a chip was determined using the ELISA technique. In view of the results, Table 13 includes a column identifying optional substitutions at each position that can maintain binding to P3028.

[5] = system: PBMCs from healthy control person; experiment: PBMC activation (CD69/CD71, flow cytometry) in RPMI plus 10% human AB serum; type: cell-based; conditions: 40 μg/mL, 24 hours, healthy PBMCs
Description: The activity of peptide P28R (SEQ ID NO: 2) and modifications of P28R was studied in a human ex vivo model using PBMCs in short term cultures, 24 or 48 hours. Effects of P28R and modifications of P28R on PBMCs from a healthy control person were studied. Activation was measured as percentage of cells with enhanced marker CD69 using flow cytometry. PBMCs were incubated with the peptides (40 μg/mL) for 24 hours in RPMI plus 10% human AB serum.
As observed in Example 37, P28R (SEQ ID NO: 2) can stimulate PBMCs from healthy controls in short term cultures when RPMI plus 10% normal human AB serum is used as culture medium. Truncations of P28R were also assessed for their ability to activate PBMCs. PBMCs were incubated with the peptides (40 μg/mL) for 24 hours in RPMI plus 10% human AB serum. PBMC activation was measured as percent cells with enhanced expression of either CD69 (FIG. 42A) or CD71 (FIG. 42B) using flow cytometry. Two experiments were performed for each peptide.
Effects of modified peptides on activation of PBMCs from healthy control person were assessed. Activation was determined as percentage of cells with enhanced marker CD69 or CD71 using flow cytometry. PBMCs were incubated with the peptides (40 μg/mL) for 48 hours in RPMI plus 10% human AB serum.

[6] = system: PBMCs; experiment: PBMC activation (CD69) in culture medium with cancer sera; type: cell-based; conditions: sera from dogs with cancer or human patients with cancer
[7] = system: PBMCs; experiment: Direct binding to PBMCs (immunocytochemistry, rosetting of coated beads); set-up: species or system human

KKLDTFFKKLSLFTER [P27]
blocking of the binding of P3028 in solution [1]: does not
effect on MTS conversion [2]: no effect
effect on IL-2 induced proliferation (BrdU) [3]: enhanced the proliferative rate

FFVKLS [P28 core]
binding to P3028 based on positional scans [4]: as efficiently as the full length peptide P28R
PBMC activation, enhanced CD69 or CD71 [5]: did not activate
PBMC activation, enhanced CD69 [6]: activated PBMCs

biotinylated P28R: P28R labelled with biotin (KKLDTFFVKLSLFTER; also: biotin label, position not given here)
direct binding to PBMCs [7]: bind directly to PBMCs
